PMC6434714 (Journal of natural products, 2018)
pIC50: −log10 of the molar value. Converted amounts (≈) assume the structure as drawn.

Columns and labels:
[1] = tested on: S. aureus subsp. aureus (Newman strain); assay: Antimicrobial activity; settings: for activity against S. aureus (in words): growth inhibition
[2] = biological target: A. aeolicus MraY (AaMraY) (Aquifex aeolicus, UniProt O66465); assay: Fluorescence-based in vitro MraY assay, A. aeolicus MraY; format: biochemical
Staphylococcal = settings: cited from earlier work
E. coli imp mutant = settings: cited from earlier work
S. aureus = settings: cited from earlier work

Chain of A. aeolicus MraY (AaMraY) (O66465 whole entry): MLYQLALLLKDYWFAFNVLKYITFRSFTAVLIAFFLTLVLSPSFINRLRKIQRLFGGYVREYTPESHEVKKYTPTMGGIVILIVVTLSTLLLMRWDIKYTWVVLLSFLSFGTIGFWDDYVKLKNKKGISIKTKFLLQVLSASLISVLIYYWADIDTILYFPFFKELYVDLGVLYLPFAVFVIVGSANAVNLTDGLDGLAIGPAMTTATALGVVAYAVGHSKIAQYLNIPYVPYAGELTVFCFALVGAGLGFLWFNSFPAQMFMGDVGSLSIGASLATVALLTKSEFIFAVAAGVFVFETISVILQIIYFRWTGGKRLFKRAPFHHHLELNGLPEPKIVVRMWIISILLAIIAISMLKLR

## CO[C@H]1[C@H](O[C@H]([C@H]2O[C@@H](n3ccc(=O)[nH]c3=O)[C@H](O)[C@@H]2O)[C@H](NCCCNC(=O)[C@@H](NC(=O)[C@@H](NC(=O)N[C@H](C(=O)O)C(C)C)[C@@H]2CCNC(=N)N2)[C@@H](OC(=O)CCCCCCCCCCCCC(C)C)C(C)C)C(=O)O)O[C@H](CN)[C@H]1O [Compound 1, muraymycin B8]
[1]; Staphylococcus aureus, NEWMAN, 16 h, read-out: S. aureus growth inhibition MIC, Newman strain, 37 °C, 16 h
  MIC: 2 to 6 µg/mL (≈ 1.69 to 5.07 µM)
[2]
  pIC50: 10.17

## CO[C@H]1[C@H](O[C@H]([C@H]2O[C@@H](n3ccc(=O)[nH]c3=O)[C@H](O)[C@@H]2O)[C@H](NCCCNC(=O)[C@@H](NC(=O)[C@@H](NC(=O)N[C@H](C(=O)O)C(C)C)[C@@H]2CCNC(=N)N2)[C@@H](OC(=O)CCCCCCCCCCC(C)C)C(C)C)C(=O)O)O[C@H](CN)[C@H]1O [Compound 2, muraymycin B9]
[1]; Newman strain, 37 °C, 16 h
  S. aureus growth inhibition MIC: 2 to 6 µg/mL

## CO[C@H]1[C@H](O[C@H]([C@H]2O[C@@H](n3ccc(=O)[nH]c3=O)[C@H](O)[C@@H]2O)[C@H](NCCCNC(=O)[C@@H](NC(=O)[C@@H](NC(=O)N[C@H](C(=O)O)C(C)C)[C@@H]2CCNC(=N)N2)[C@@H](O)C(C)C)C(=O)O)O[C@H](CNC(C)=O)[C@H]1O [Compound 3, 16-N-acetyl-muraymycin C1]
[1]
  activity against S. aureus (in words): inactive

## CO[C@H]1[C@H](O[C@H]([C@H]2O[C@@H](n3ccc(=O)[nH]c3=O)[C@H](O)[C@@H]2O)[C@H](NCCCNC(=O)[C@@H](NC(=O)[C@@H](NC(=O)N[C@H](C(=O)O)C(C)C)[C@@H]2CCNC(=N)N2)[C@@H](OC(=O)CCCCCCCCCCCCN(O)C(=N)N)C(C)C)C(=O)O)O[C@H](CN)[C@H]1O [Muraymycin A1]
Staphylococcal
  MIC against Staphylococcal: 2 to 16 µg/mL
E. coli imp mutant
  MIC against E. coli imp mutant: < 0.03 µg/mL

## CO[C@H]1[C@H](O[C@H]([C@H]2O[C@@H](n3ccc(=O)[nH]c3=O)[C@H](O)[C@@H]2O)[C@H](NCCCNC(=O)[C@@H](NC(=O)[C@@H](NC(=O)N[C@H](C(=O)O)C(C)C)[C@@H]2CCN=C(N)N2)[C@@H](OC(=O)CCCCCCC(C)C)C(C)C)C(=O)O)O[C@H](CN)[C@H]1O [muraymycin B2]
S. aureus
  MIC against S. aureus: > 32 µg/mL

## CO[C@H]1[C@H](O[C@H]([C@H]2O[C@@H](n3ccc(=O)[nH]c3=O)[C@H](O)[C@@H]2O)[C@H](NCCCNC(=O)[C@@H](NC(=O)[C@@H](NC(=O)N[C@H](C(=O)O)C(C)C)[C@@H]2CCN=C(N)N2)[C@@H](OC(=O)CCCCC(C)C)C(C)C)C(=O)O)O[C@H](CN)[C@H]1O [muraymycin B6]
S. aureus
  MIC against S. aureus: > 32 µg/mL

## CO[C@H]1[C@H](O[C@H]([C@H]2O[C@@H](n3ccc(=O)[nH]c3=O)[C@H](O)[C@@H]2O)[C@H](NCCCNC(=O)[C@@H](NC(=O)[C@@H](NC(=O)N[C@H](C(=O)O)C(C)C)[C@@H]2CCNC(=N)N2)[C@@H](O)C(C)C)C(=O)O)O[C@H](CN)[C@H]1O [muraymycin C1]
[1]
  activity against S. aureus (in words): inactive
